# Data from patent US7728106B2, “HIV-1 glycopeptides and derivatives; preparation and applications thereof” (University of Maryland Biotechnology Institute, priority 2005, dated 2010).
# Experiments:
# pronase (Actinase E) = test: Stability toward pronase digestion; assay type: in vitro ADME; details: 40 μM peptide, phosphate buffer pH 7.4, 125 ng pronase, 40 minutes, 30° C.; HPLC; FIG. 7B
# Method: (§1) FIG. 7A is a graph for digestion with furin, under reaction conditions involving a solution of each peptide (40 μM) in a phosphate buffer (pH 7.0, total 30 μl) incubated with 10 units of furin (Sigma; a unit being defined by the amount of furin that hydrolyzes one pmol substrate in 1 minute under the optimal condition) for 16 hours at 30° C., and the remaining starting peptide was quantified by HPLC and confirmed by ESI-MS determination. FIG. 7B is a graph for digestion with pronase under reaction conditions involving a solution of each peptide (40 μM) in a phosphate buffer (pH 7.4, total 100 μl) incubated with 125 ng of pronase (Sigma) for 40 minutes at 30° C., and the remaining starting peptide was quantified by HPLC and confirmed by ESI-MS determination.
# (§2) Next, the stability of the V3 glycopeptides against pronase digestion was tested. The pronase (Actinase E, Sigma) is a mixture of at least three proteolytic activities.
# furin = target: T1, furin (Homo sapiens, UniProt P09958); test: Stability toward furin digestion; assay type: in vitro ADME; details: 40 μM peptide, phosphate buffer pH 7.0, 10 units furin, 16 hours, 30° C.; HPLC; FIG. 7A
# T1 construct: purchased Sigma
# T1 sequence (P09958 108-794, species assumed): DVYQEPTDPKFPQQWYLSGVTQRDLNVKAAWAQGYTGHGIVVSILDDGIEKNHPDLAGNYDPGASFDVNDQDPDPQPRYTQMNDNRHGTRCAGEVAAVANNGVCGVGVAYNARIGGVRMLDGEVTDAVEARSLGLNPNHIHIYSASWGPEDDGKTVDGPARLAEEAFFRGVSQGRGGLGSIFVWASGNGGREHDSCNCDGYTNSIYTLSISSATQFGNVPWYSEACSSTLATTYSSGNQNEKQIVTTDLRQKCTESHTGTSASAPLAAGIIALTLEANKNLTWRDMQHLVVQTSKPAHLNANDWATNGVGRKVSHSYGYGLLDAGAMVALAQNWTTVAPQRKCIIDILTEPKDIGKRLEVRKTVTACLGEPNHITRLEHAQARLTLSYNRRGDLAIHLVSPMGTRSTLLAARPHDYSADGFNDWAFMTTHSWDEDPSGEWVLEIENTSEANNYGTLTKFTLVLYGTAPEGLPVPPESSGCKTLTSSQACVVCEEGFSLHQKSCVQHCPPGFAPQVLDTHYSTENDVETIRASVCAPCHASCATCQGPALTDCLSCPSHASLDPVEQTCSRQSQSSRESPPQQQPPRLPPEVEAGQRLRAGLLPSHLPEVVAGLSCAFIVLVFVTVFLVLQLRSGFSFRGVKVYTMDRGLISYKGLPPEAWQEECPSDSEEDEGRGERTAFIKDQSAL
# Method: To test this, a quick experiment was performed on the resistance of the synthetic V3 glycopeptides against different proteases. The protease furin was reported to be able to cleave the V3 domain of gp120 at the sequence 302-312 [134-136]. Therefore, the stability of the synthetic glycopeptides toward furin digestion was initially examined. The enzyme was obtained from Sigma and the digestion was monitored by HPLC and ESI-MS analysis.
# as §1, §2
compound,measurement,setting,value
CC[C@H](C)[C@@H]1NC(=O)[C@H](CCCCN)NC(=O)CNC(=O)[C@H]([C@@H](C)CC)NC(=O)[C@H]([C@@H](C)O)NC(=O)[C@H](C(C)C)NC(=O)[C@H](Cc2ccccc2)NC(=O)[C@H](C)NC(=O)[C@H](CCCNC(=N)N)NC(=O)CNC(=O)[C@@H]2CCCN2C(=O)CNC(=O)[C@H](CCCNC(=N)N)NC(=O)[C@H](CCC(N)=O)NC(=O)[C@H]([C@@H](C)CC)NC(=O)[C@H](CCCNC(=N)N)NC(=O)[C@H]([C@@H](C)CC)NC(=O)[C@H](CCCNC(=N)N)NC(=O)[C@H](CCCCN)NC(=O)[C@H](CCCNC(=N)N)NC(=O)[C@H]([C@@H](C)O)NC(=O)[C@H](CC(N)=O)NC(=O)[C@H](CC(N)=O)NC(=O)[C@H](CC(N)=O)NC(=O)[C@@H]2CCCN2C(=O)[C@H](CCCNC(=N)N)NC(=O)[C@H]([C@@H](C)O)NC(=O)[C@@H](NC(=O)[C@H](CC(=O)N[C@@H]2O[C@H](CO)[C@@H](O[C@@H]3O[C@H](CO)[C@@H](O[C@@H]4O[C@H](CO[C@H]5O[C@H](CO)[C@@H](O)[C@H](O)[C@@H]5O)[C@@H](O)[C@H](O[C@H]5O[C@H](CO)[C@@H](O)[C@H](O)[C@@H]5O)[C@@H]4O)[C@H](O)[C@H]3NC(C)=O)[C@H](O)[C@H]2NC(C)=O)NC(=O)[C@@H](NC(=O)[C@H](CCC(=O)O)NC(=O)[C@@H](NC(=O)[C@H](CO)NC(=O)[C@@H](N)[C@@H](C)O)C(C)C)[C@@H](C)CC)CSSC[C@@H](C(=O)N[C@@H](CC(=O)N[C@@H]2O[C@H](CO)[C@@H](O[C@@H]3O[C@H](CO)[C@@H](O[C@@H]4O[C@H](CO[C@H]5O[C@H](CO)[C@@H](O)[C@H](O)[C@@H]5O)[C@@H](O)[C@H](O[C@H]5O[C@H](CO)[C@@H](O)[C@H](O)[C@@H]5O)[C@@H]4O)[C@H](O)[C@H]3NC(C)=O)[C@H](O)[C@H]2NC(C)=O)C(=O)N[C@H](C(=O)N[C@@H](CO)C(=O)N[C@@H](CCCNC(=N)N)C(=O)N[C@@H](C)C(N)=O)[C@@H](C)CC)NC(=O)[C@H](Cc2c[nH]cn2)NC(=O)[C@H](C)NC(=O)[C@H](CCC(N)=O)NC(=O)[C@H](CCCNC(=N)N)NC(=O)[C@H](CCSC)NC(=O)[C@H](CC(N)=O)NC(=O)CNC1=O [HB-V3-(G2M3)2],stability toward pronase digestion (remaining starting peptide),pronase (Actinase E),most stable
same,stability toward furin digestion (remaining starting peptide),furin,most stable
